Reference: US20090197859A1 (Pfizer Inc., priority 2008, published 2009)

target: T1, cloned human 5-HT6 receptor (Homo sapiens, UniProt P50406); test: 5-HT6 Receptor Binding Assay ([3H]-LSD radioligand, SPA); details: read-out: 5HT6 % inh @ 1 uM
T1 construct: host or cells: HeLa cells, G-418 selection, membrane preparation
Experimental: 5-HT6 Receptor Binding Assay
Hela cells containing the cloned human 5-HT6 receptor were acquired from Dr. David R. Sibley's laboratory in National Institute of Health (see Sibley, D. R., J. Neurochemistry, 66, 47-56, 1996). Cells were grown in high glucose Dulbecco's modified Eagle's medium, supplemented with L-glutamine, 0.5% sodium pyruvate, 0.3% penicillin-streptomycin, 0.025% G-418 and 5% Gibco fetal bovine serum and then were harvested, when confluent, in cold phosphate buffered saline.
Harvested intact cells were washed once in cold phosphate-buffered saline. The cells were pelleted and resuspended in 100 ml of cold 50 mM Tris, 5 mM EDTA and 5 mM EGTA, pH 7.4. Homogenization was with a Vir Tishear generator, 4 cycles for 30 seconds each at setting 50. The homogenized cells were centrifuged at […] for 10 minutes and the supernatant was removed. The pellet was resuspended in 100 ml of the above buffer and rehomogenized for 2 cycles. The rehomogenized cells were then centrifuged at […] for 10 minutes and the supernatant was removed. The combined supernatant (200 ml) was centrifuged at 23,000 RPM (80,000×g) for 1 hour in a Beckman Rotor (42.1 Ti). The membrane pellet was resuspended in […] of assay buffer containing HEPES 20 mM, MgCl2 10 mM, NaCl 150 mM, EDTA 1 mM, pH 7.4 and stored frozen in aliqouts at −70° C.
The radioligand binding assay used [^3H]-lysergic acid diethylamide (LSD). The assay was carried out in Wallac 96-well sample plates by the addition of 11 μl of the test sample at the appropriate dilution (the assay employed 11 serial concentrations of samples run in duplicate), 11 μl of radioligand, and 178 μl of a washed mixture of WGA-coated SPA beads and membranes in binding buffer. The plates were shaken for about 5 minutes and then incubated at room temperature for 1 hour. The plates were then loaded into counting cassettes and counted in a Wallac MicroBeta Trilux scintillation counter.
Binding Constant Determination may be obtained by performing serial dilutions, e.g., eleven dilutions, of test compounds into assay plates using the PE/Cetus Pro/Pette pipetter. These dilutions are followed by radioligand and the bead-membrane mixture prepared as described above. After obtaining the specifically bound cpm, the data are fit to a one-site binding model using GraphPad Prism ver. 2.0. Estimated IC50 values are converted to Ki values using the Cheng-Prusoff equation (Cheng, Y. C. et al., Biochem. Pharmacol., 22, 3099-108, 1973).

T1 sequence (P50406 whole entry): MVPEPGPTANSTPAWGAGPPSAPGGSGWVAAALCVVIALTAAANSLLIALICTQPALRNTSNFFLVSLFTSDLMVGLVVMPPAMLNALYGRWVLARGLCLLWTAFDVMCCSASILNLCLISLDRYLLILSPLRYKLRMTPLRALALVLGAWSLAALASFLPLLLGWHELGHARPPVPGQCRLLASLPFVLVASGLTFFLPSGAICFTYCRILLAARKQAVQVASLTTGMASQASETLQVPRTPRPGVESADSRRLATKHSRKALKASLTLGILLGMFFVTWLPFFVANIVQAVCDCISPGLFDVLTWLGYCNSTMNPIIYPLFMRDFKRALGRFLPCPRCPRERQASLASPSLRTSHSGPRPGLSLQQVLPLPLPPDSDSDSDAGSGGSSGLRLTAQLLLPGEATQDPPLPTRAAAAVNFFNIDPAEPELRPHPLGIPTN

inhibition at 1 µM [%]	SMILES
93.2	CN1CCC(c2cccc(C(=O)N3CCC(Oc4cccc(F)c4)CC3)n2)C1 (stereo not drawn) [Example 16, [4-(3-Fluoro-phenoxy)-piperidin-1-yl]-[6-(1-methyl-pyrrolidin-3-yl)-pyridin-2-yl]-methanone]
97.8	CN1CCN(c2cccc(C(=O)N3CC=C(c4ccccc4F)CC3)n2)CC1 [Example 21, [4-(2-Fluoro-phenyl)-3,6-dihydro-2H-pyridin-1-yl]-[6-(4-methyl-piperazin-1-yl)-pyridin-2-yl]-methanone]
96.8	O=C(c1cccc(N2CCNCC2)n1)N1CCC(c2ccccc2F)CC1 [Example 22, [4-(2-Fluoro-phenyl)-piperidin-1-yl]-(6-piperazin-1-yl-pyridin-2-yl)-methanone]
98.3	Cc1cccc(F)c1C1CCN(C(=O)c2cccc(N3CCN(C)CC3)n2)CC1 [Example 23, [4-(2-Fluoro-6-methyl-phenyl)-piperidin-1-yl]-[6-(4-methyl-piperazin-1-yl)-pyridin-2-yl]-methanone]
78.6	Cc1ccccc1C1CCCCN1C(=O)c1cccc(N2CCNCC2)n1 (stereo not drawn) [Example 26, (6-Piperazin-1-yl-pyridin-2-yl)-(2-o-tolyl-piperidin-1-yl)-methanone]
98.8	O=C(c1cccc(N2CCCNCC2)n1)N1CC[C@H](Oc2ccccc2F)C1 [Example 30, (6-[1,4]Diazepan-1-yl-pyridin-2-yl)-[(S)-3-(2-fluoro-phenoxy)-pyrrolidin-1-yl]-methanone]
85	CN1CCCN(c2cccc(C(=O)N3CC[C@@H](Oc4ccccc4F)C3)n2)CC1 [Example 46, [(R)-3-(2-Fluoro-phenoxy)-pyrrolidin-1-yl]-[6-(4-methyl-[1,4]diazepan-1-yl)-pyridin-2-yl]-methanone]
90.6	O=C(c1cccc(N2CCCNCC2)n1)N1CCC[C@@H](Oc2ccccc2F)C1 [Example 47, (6-[1,4]Diazepan-1-yl-pyridin-2-yl)-[(R)-3-(2-fluoro-phenoxy)-piperidin-1-yl]-methanone]
97	O=S(=O)(c1cccc(N2CCNCC2)n1)N1CCC(c2ccccc2F)CC1 [Example 51, 1-{6-[4-(2-Fluoro-phenyl)-piperidine-1-sulfonyl]-pyridin-2-yl}-piperazine]
95.9	Cc1ccccc1O[C@@H]1CCN(C(=O)c2cccc(N3CCCN(C)CC3)n2)C1 [Example 53, [6-(4-Methyl-[1,4]diazepan-1-yl)-pyridin-2-yl]-((R)-3-o-tolyloxy-pyrrolidin-1-yl)-methanone]
73.8	Cc1ccc([C@@H](C)N(C)C(=O)c2cccc(N3CCN(C)CC3)n2)cc1 [Example 60, 6-(4-Methyl-piperazin-1-yl)-pyridine-2-carboxylic acid methyl-((R)-1-p-tolyl-ethyl)-amide]
98.5	Cc1ccccc1C1CCN(S(=O)(=O)c2cccc(N3CCN(C)CC3)n2)CC1 [Example 78, 1-Methyl-4-[6-(4-o-tolyl-piperidine-1-sulfonyl)-pyridin-2-yl]-piperazine]
93.6	Cc1cccc([C@H]2CCCCN2C(=O)c2cccc(N3CCCN(C)CC3)n2)c1 [Example 81]
91.3	Cc1ccccc1C1CN(C(=O)c2cccc(N3CCN(C)CC3)n2)C1 [Example 82, [6-(4-Methyl-piperazin-1-yl)-pyridin-2-yl]-(3-o-tolyl-azetidin-1-yl)-methanone]
84.4	CN1CCN(c2cccc(C(=O)N3CC(c4ccccc4F)C3)n2)CC1 [Example 83, [3-(2-Fluoro-phenyl)-azetidin-1-yl]-[6-(4-methyl-piperazin-1-yl)-pyridin-2-yl]-methanone]
78	CN1CCN(c2cccc(C(=O)N3CC(c4cccc(F)c4)C3)n2)CC1 [Example 84, [3-(3-Fluoro-phenyl)-azetidin-1-yl]-[6-(4-methyl-piperazin-1-yl)-pyridin-2-yl]-methanone]
92.3	CN1CCCN(c2cccc(C(=O)N3CCCC[C@@H]3c3ccccc3F)n2)CC1 [Example 89, [(R)-2-(2-Fluoro-phenyl)-piperidin-1-yl]-[6-(4-methyl-[1,4]diazepan-1-yl)-pyridin-2-yl]-methanone]
84.8	Cc1cccc(C2CN(C(=O)c3cccc(N4CCN(C)CC4)n3)C2)c1 [Example 91, [6-(4-Methyl-piperazin-1-yl)-pyridin-2-yl]-(3-m-tolyl-azetidin-1-yl)-methanone]
90.8	CN1CCN(c2cccc(C(=O)N3CCCC(c4cccc(F)c4)C3)n2)CC1 (stereo not drawn) [Example 94, [3-(3-Fluoro-phenyl)-piperidin-1-yl]-[6-(4-methyl-piperazin-1-yl)-pyridin-2-yl]-methanone]
84	Cc1ccccc1OC1CCN(C(=O)c2cccc(C3CCN(C)CC3)n2)CC1 [Example 95, (1′-Methyl-1′,2′,3′,4′,5′,6′-hexahydro-[2,4′]bipyridinyl-6-yl)-(4-o-tolyloxy-piperidin-1-yl)-methanone]
78.4	CN1CCC(c2cccc(C(=O)N3CCC(Oc4ccccc4F)CC3)n2)CC1 [Example 99, [4-(2-Fluoro-phenoxy)-piperidin-1-yl]-(1′-methyl-1′,2′,3′,4′,5′,6′-hexahydro-[2,4′]bipyridinyl-6-yl)-methanone]
97.2	CN1CCN(c2cccc(C(=O)N3CCC(F)(c4ccccc4F)CC3)n2)CC1 [Example 107, [4-Fluoro-4-(2-fluoro-phenyl)-piperidin-1-yl]-[6-(4-methyl-piperazin-1-yl)-pyridin-2-yl]-methanone]
95.4	CN1CCC(c2cccc(C(=O)N3CCC(c4ccc(F)cc4F)CC3)n2)C1 (stereo not drawn) [Example 108, [4-(2,4-Difluoro-phenyl)-piperidin-1-yl]-[6-(1-methyl-pyrrolidin-3-yl)-pyridin-2-yl]-methanone]
97.8	CN1CCN(c2cccc(C(=O)N3CCC(Oc4ccc(F)cc4F)CC3)n2)CC1 [Example 109, [4-(2,4-Difluoro-phenoxy)-piperidin-1-yl]-[6-(4-methyl-piperazin-1-yl)-pyridin-2-yl]-methanone]
98.2	Cc1cccc(F)c1C1CCN(C(=O)c2cccc(C3=CCNC3)n2)CC1 [Example 110, [6-(2,5-Dihydro-1H-pyrrol-3-yl)-pyridin-2-yl]-[4-(2-fluoro-6-methyl-phenyl)-piperidin-1-yl]-methanone]
97.8	CN1CCC(c2cccc(C(=O)N3CCC(Oc4ccccc4F)CC3)n2)C1 (stereo not drawn) [Example 113, [4-(2-Fluoro-phenoxy)-piperidin-1-yl]-[6-(1-methyl-pyrrolidin-3-yl)-pyridin-2-yl]-methanone]
64.5	Cc1ccccc1C1CCN(C(=O)c2cccc(N3CCN(C4CC4)CC3)n2)CC1 [Example 114, [6-(4-Cyclopropyl-piperazin-1-yl)-pyridin-2-yl]-(4-o-tolyl-piperidin-1-yl)-methanone]
101	CN1CCN(c2cccc(C(=O)N3CCC(Cc4ccccc4F)CC3)n2)CC1 [Example 115, [4-(2-Fluoro-benzyl)-piperidin-1-yl]-[6-(4-methyl-piperazin-1-yl)-pyridin-2-yl]-methanone]
98.5	CN1CCN(c2cccc(C(=O)N3CCCC(c4ccccc4F)CC3)n2)CC1 (stereo not drawn) [Example 116, [4-(2-Fluoro-phenyl)-azepan-1-yl]-[6-(4-methyl-piperazin-1-yl)-pyridin-2-yl]-methanone]

SMILES	inhibition at 1 µM [%]
CN1CC=C(c2cccc(C(=O)N3CCC(Oc4ccccc4F)CC3)n2)CC1 [Example 18, [4-(2-Fluoro-phenoxy)-piperidin-1-yl]-[1′-methyl-1′,2′,3′,6′-tetrahydro-[2,4′]bipyridinyl-6-yl)-methanone]	95.3
Cc1ccccc1OC1CCN(C(=O)c2cccc(C3=CCN(C)CC3)n2)CC1 [Example 98, (1′-Methyl-1′,2′,3′,6′-tetrahydro-[2,4′]bipyridinyl-6-yl)-(4-o-tolyloxy-piperidin-1-yl)-methanone]	99.1
CN1CC=C(c2cccc(C(=O)N3CCC(Oc4ccccc4Cl)CC3)n2)CC1 [Example 100, [4-(2-Chloro-phenoxy)-piperidin-1-yl]-(1′-methyl-1′,2′,3′,6′-tetrahydro-[2,4′]bipyridinyl-6-yl)-methanone]	102
CN1CC=C(c2cccc(C(=O)N3CCC(Oc4ccccc4C(F)(F)F)CC3)n2)CC1 [Example 101, (1′-Methyl-1′,2′,3′,6′-tetrahydro-[2,4′]bipyridinyl-6-yl)-[4-(2-trifluoromethyl-phenoxy)-piperidin-1-yl]-methanone]	96.9
